Drawing on patent US20240050428A1 (Cullgen (Shanghai), Inc., priority 2020, published 2024), this text covers IC50 for 14 molecules.

In one assay the test system is MV4;11 cells. Put plainly: Cell viability assay (CellTiter-Glo) in MV4;11 cells, alone or with gilteritinib. Format: cell-based. As to conditions: MV4;11 cells, three days, CellTiter-Glo, read-out: MV4.
Another assay deals with MOLM-13 cells. Put plainly: Cell viability assay (CellTiter-Glo) in MOLM-13 cells, alone or with gilteritinib. As to conditions: Homo sapiens, MOLM-13, 72 h, MOLM-13 cells, three days, CellTiter-Glo. Format: cell-based.
[1] abbreviates: Homo sapiens, MV4-11, 72 h, compound alone (without gilteritinib), 11 IC50.
[2] abbreviates: Homo sapiens, MV4-11, 72 h, with gilteritinib 10 nM, 11 IC50 gilteritinib.
Setting [3] is: compound alone (without gilteritinib), read-out: MOLM-13 IC50.
[4] abbreviates: with gilteritinib 20 nM, read-out: MOLM-13 IC50 gilteritinib.

Read-outs that look alike come from different tables or passages of the source. Some results are limits rather than exact numbers.

For the molecule `O=C1CCC(N2C(=O)c3ccc(NCCC[C@H]4C[C@H](n5cc(-c6nccc(N7CCOCC7)n6)cn5)C4)cc3C2=O)C(=O)N1` (stereo partly drawn) [GS-240, 2-(2,6-Dioxopiperidin-3-yl)-5-((3-(trans-3-(4-(4-morpholinopyrimidin-2-yl)-1H-pyrazol-1-yl)cyclobutyl)propyl)amino)isoindoline-1,3-dione], the IC50 with MV4;11 cells (setting [1]) was 10 to 100 nM; with MV4;11 cells (setting [2]), less than 10 nM; with MOLM-13 cells (setting [3]), 100 to 1000 nM; in the assay on MOLM-13 cells (setting [4]), 10 to 100 nM.

In the case of `O=C1CCC(N2C(=O)c3ccc(NCCC[C@H]4C[C@H](n5cc(-c6cccc(N7CCOCC7)c6)cn5)C4)cc3C2=O)C(=O)N1` (stereo partly drawn) [GS-241, 2-(2,6-Dioxopiperidin-3-yl)-5-((3-(trans-3-(4-(3-morpholinophenyl)-1H-pyrazol-1-yl)cyclobutyl)propyl)amino)isoindoline-1,3-dione], the IC50 in the assay with MV4;11 cells (setting [1]) was 100 to 1000 nM; in the assay with MV4;11 cells (setting [2]) it was 100 to 1000 nM; in the assay on MOLM-13 cells (setting [3]), more than 1000 nM; in the assay on MOLM-13 cells (setting [4]), 100 to 1000 nM.

As for `O=C1CCC(N2C(=O)c3ccc(NCCC[C@H]4C[C@H](n5cc(-c6ncccn6)cn5)C4)cc3C2=O)C(=O)N1` (stereo partly drawn) [GS-242, 2-(2,6-Dioxopiperidin-3-yl)-5-((3-(trans-3-(4-(pyrimidin-2-yl)-1H-pyrazol-1-yl)cyclobutyl)propyl)amino)isoindoline-1,3-dione], the IC50 in the assay on MV4;11 cells (setting [1]) was more than 1000 nM; with MV4;11 cells (setting [2]), 100 to 1000 nM; with MOLM-13 cells (setting [3]), more than 1000 nM; in the assay with MOLM-13 cells (setting [4]), 100 to 1000 nM.

`O=C1CCC(N2C(=O)c3ccc(NCCC[C@H]4C[C@H](n5cc(-c6cnc7ccccc7n6)c(C(F)F)n5)C4)cc3C2=O)C(=O)N1` (stereo partly drawn) [GS-243, 5-((3-(trans-3-(3-(Difluoromethyl)-4-(quinoxalin-2-yl)-1H-pyrazol-1-yl)cyclobutyl)propyl)amino)-2-(2,6-dioxopiperidin-3-yl)isoindoline-1,3-dione]: the IC50 with MV4;11 cells (setting [1]) was 10 to 100 nM; in the assay on MV4;11 cells (setting [2]), less than 10 nM; with MOLM-13 cells (setting [3]), 10 to 100 nM; with MOLM-13 cells (setting [4]), less than 10 nM.

With `Cc1nn([C@H]2C[C@H](CCCNc3ccc4c(c3)C(=O)N(C3CCC(=O)NC3=O)C4=O)C2)cc1-c1cccc(N2CCOCC2)n1` (stereo partly drawn) [GS-244, 2-(2,6-Dioxopiperidin-3-yl)-5-((3-(trans-3-(3-methyl-4-(6-morpholinopyridin-2-yl)-1H-pyrazol-1-yl)cyclobutyl)propyl)amino)isoindoline-1,3-dione], the IC50 was 100 to 1000 nM with MV4;11 cells (setting [1]), 10 to 100 nM in the assay on MV4;11 cells (setting [2]), more than 1000 nM with MOLM-13 cells (setting [3]) and 10 to 100 nM in the assay with MOLM-13 cells (setting [4]).

`CN1CCN(c2cccc(-c3cnn([C@H]4C[C@H](CCCNc5ccc6c(c5)C(=O)N(C5CCC(=O)NC5=O)C6=O)C4)c3)n2)CC1` (stereo partly drawn) [GS-245, 2-(2,6-Dioxopiperidin-3-yl)-5-((3-(trans-3-(4-(6-(4-methylpiperazin-1-yl)pyridin-2-yl)-1H-pyrazol-1-yl)cyclobutyl)propyl)amino)isoindoline-1,3-dione]: the IC50 is 10 to 100 nM in the assay with MV4;11 cells (setting [2]); more than 1000 nM with MV4;11 cells (compound alone (without gilteritinib), 11 IC50); more than 1000 nM in the assay on MOLM-13 cells (setting [3]); 100 to 1000 nM in the assay on MOLM-13 cells (setting [4]).

As for `O=C1CCC(N2C(=O)c3ccc(NCCC[C@H]4C[C@H](n5cc(-c6cccc(N7CCOCC7)n6)c(C6CC6)n5)C4)cc3C2=O)C(=O)N1` (stereo partly drawn) [GS-246, 5-((3-(trans-3-(3-Cyclopropyl-4-(6-morpholinopyridin-2-yl)-1H-pyrazol-1-yl)cyclobutyl)propyl)amino)-2-(2,6-dioxopiperidin-3-yl)isoindoline-1,3-dione], the IC50 in the assay on MV4;11 cells (setting [1]) was 100 to 1000 nM; with MV4;11 cells (setting [2]), 10 to 100 nM; in the assay on MOLM-13 cells (setting [3]), more than 1000 nM; in the assay on MOLM-13 cells (setting [4]), 100 to 1000 nM.

As to `O=C1CCC(N2C(=O)c3ccc(NCCC[C@H]4C[C@H](n5cc(-c6cccc(N7CCNCC7)n6)cn5)C4)cc3C2=O)C(=O)N1` (stereo partly drawn) [GS-247, 2-(2,6-Dioxopiperidin-3-yl)-5-((3-(trans-3-(4-(6-(piperazin-1-yl)pyridin-2-yl)-1H-pyrazol-1-yl)cyclobutyl)propyl)amino)isoindoline-1,3-dione], the IC50 in the assay with MV4;11 cells (setting [1]) is 100 to 1000 nM; with MV4;11 cells (setting [2]) it was less than 10 nM; in the assay on MOLM-13 cells (setting [3]), more than 1000 nM; in the assay on MOLM-13 cells (setting [4]), 10 to 100 nM.

Consider `CN(C)c1cccc(-c2cnn([C@H]3C[C@H](CCCNc4ccc5c(c4)C(=O)N(C4CCC(=O)NC4=O)C5=O)C3)c2)n1` (stereo partly drawn) [GS-248, 5-((3-(trans-3-(4-(6-(Dimethylamino)pyridin-2-yl)-1H-pyrazol-1-yl)cyclobutyl)propyl)amino)-2-(2,6-dioxopiperidin-3-yl)isoindoline-1,3-dione], for which the IC50 is 10 to 100 nM in the assay with MV4;11 cells (setting [1]), 10 to 100 nM in the assay with MV4;11 cells (setting [2]), more than 1000 nM in the assay on MOLM-13 cells (setting [3]) and 10 to 100 nM in the assay on MOLM-13 cells (setting [4]).

As to `O=C1CCC(N2C(=O)c3ccc(NCCC[C@H]4C[C@H](n5cc(-c6cccc(=O)[nH]6)cn5)C4)cc3C2=O)C(=O)N1` (stereo partly drawn) [GS-249, 2-(2,6-Dioxopiperidin-3-yl)-5-((3-(trans-3-(4-(6-oxo-1,6-dihydropyridin-2-yl)-1H-pyrazol-1-yl)cyclobutyl)propyl)amino)isoindoline-1,3-dione], the IC50 is 100 to 1000 nM in the assay with MV4;11 cells (setting [1]), more than 1000 nM with MV4;11 cells (setting [2]), more than 1000 nM in the assay with MOLM-13 cells (setting [3]) and 100 to 1000 nM in the assay on MOLM-13 cells (setting [4]).

`O=C1CCC(N2C(=O)c3ccc(NCCC[C@H]4C[C@H](n5cc(-c6cnc7c(C8CNC8)cccc7n6)cn5)C4)cc3C2=O)C(=O)N1` (stereo partly drawn) [GS-250, 5-((3-(trans-3-(4-(5-(Azetidin-3-yl)quinoxalin-2-yl)-1H-pyrazol-1-yl)cyclobutyl)propyl)amino)-2-(2,6-dioxopiperidin-3-yl)isoindoline-1,3-dione]: the IC50 in the assay with MV4;11 cells (setting [1]) was 100 to 1000 nM; in the assay on MV4;11 cells (setting [2]), 10 to 100 nM; in the assay with MOLM-13 cells (setting [3]) it was 100 to 1000 nM; in the assay on MOLM-13 cells (setting [4]), 10 to 100 nM.

On to `CNc1cccc(-c2cnn([C@H]3C[C@H](CCCNc4ccc5c(c4)C(=O)N(C4CCC(=O)NC4=O)C5=O)C3)c2)n1` (stereo partly drawn) [GS-251, 2-(2,6-Dioxopiperidin-3-yl)-5-((3-(trans-3-(4-(6-(methylamino)pyridin-2-yl)-1H-pyrazol-1-yl)cyclobutyl)propyl)amino)isoindoline-1,3-dione], for which the IC50 is 100 to 1000 nM in the assay on MV4;11 cells (setting [1]), 10 to 100 nM in the assay on MV4;11 cells (setting [2]), 100 to 1000 nM in the assay on MOLM-13 cells (setting [3]) and 10 to 100 nM in the assay on MOLM-13 cells (setting [4]).

Turning to `O=C1CCC(N2C(=O)c3ccc(NCCC[C@H]4C[C@H](n5cc(-c6cccc(N7CCC(O)CC7)n6)cn5)C4)cc3C2=O)C(=O)N1` (stereo partly drawn) [GS-252, 2-(2,6-Dioxopiperidin-3-yl)-5-((3-(trans-3-(4-(6-(4-hydroxypiperidin-1-yl)pyridin-2-yl)-1H-pyrazol-1-yl)cyclobutyl)propyl)amino)isoindoline-1,3-dione], the IC50 with MV4;11 cells (setting [1]) was 100 to 1000 nM; in the assay with MV4;11 cells (setting [2]) it was more than 1000 nM; with MOLM-13 cells (setting [3]) it was more than 1000 nM; in the assay with MOLM-13 cells (setting [4]) it was more than 1000 nM.

`Cc1ccnc(-c2cn([C@H]3C[C@H](CNc4ccc5c(c4)C(=O)N(C4CCC(=O)NC4=O)C5=O)C3)nc2C2CC2)c1` (stereo partly drawn) [GS-253, 5-(((trans-3-(3-Cyclopropyl-4-(4-methylpyridin-2-yl)-1H-pyrazol-1-yl)cyclobutyl)methyl)amino)-2-(2,6-dioxopiperidin-3-yl)isoindoline-1,3-dione]: the IC50 in the assay on MV4;11 cells (setting [1]) is less than 10 nM; in the assay with MV4;11 cells (setting [2]) it was less than 10 nM; in the assay with MOLM-13 cells (setting [3]), 10 to 100 nM; with MOLM-13 cells (setting [4]), less than 10 nM.
